The text below walks through data of article PMC12239106, “Discovery of conformation constrained tetracyclic compounds as potent chitinase OfChi-h inhibitors with a novel binding mode” (Journal of Enzyme Inhibition and Medicinal Chemistry, 2025).

Assay [1] deals with T1, OfChi-h (Ostrinia furnacalis, UniProt Q4AE59).
T1 construct: made in house; host or cells: Pichia pastoris GS115
Description: Chitinase inhibition assay and Ki determination (MU-β-(GlcNAc)2 substrate, Dixon plot), OfChi-h. In kind it is biochemical. The conditions noted are these: for inhibition at 10 µM: 10 μM inhibitor, 10 nM enzyme, 4 μM MU-β-(GlcNAc)2, pH 6.0, 30 °C, 20 min; for Ki: Dixon plot, substrate 2–8 μM. The method, then:
(§1) SmChiA was expressed in Escherichia coli BL21(DE3), HsChit1 and OfChi-h were overexpressed in Pichia pastoris GS115. The Escherichia coli BL21(DE3) strain was purchased from TaKaRa Biotech (Dalian, […]) while the Pichia pastoris GS115 strain was obtained from Invitrogen (Thermo Fisher Scientific, CA, USA), both of which were cultured and handled according to the protocols provided by suppliers. All chitinases were purified using immobilised metal ion affinity chromatography as previously described. Briefly, solid ammonium sulphate was slowly added to the culture supernatant to achieve 75% saturation. After incubation at 4 °C for 24 h, the precipitated proteins were collected by centrifugation at 12,000 × g for 30 min at 4 °C. The pellet was resuspended thoroughly in buffer A (20 mM sodium phosphate, 0.5 M sodium chloride, pH 7.4), and the solution was centrifuged again at 12,000 × g for 15 min at 4 °C to remove insoluble material. The clarified supernatant was loaded onto a 5 ml HisTrap™ Crude affinity column (GE Healthcare) that had been pre-equilibrated with buffer A. The column was subsequently washed with buffer A containing 75 mM imidazole to remove non-specifically bound proteins. Recombinant chitinases were eluted using buffer A containing 250 mM imidazole. The expressed proteins were quantified using a BCA protein assay kit (TaKaRa Biotech, China). And their purities were determined by SDS-PAGE and found to be >95% in all cases.
(§2) Chitinase activities for SmChiA, HsChit1 and OfChi-h were determined using 4-methylumbelliferyl-N, N′-diacetyl-β-D-chitobioside (MU-β-(GlcNAc)2) (purchased from Sigma) as a substrate. The final reaction mixture volume used for inhibitor screening was 100 μL, consisting of 10 nM enzyme, 4 μM MU-β-(GlcNAc)2, 10 μM inhibitor, and 2% DMSO in a 20 mM sodium phosphate buffer (pH 6.0). The reaction in the absence of inhibitor was used as a positive control. After incubation at 30 °C for 20 min, 0.5 M sodium carbonate was added to the reaction mixture, and the fluorescence produced by the released 4-MU was quantified with a Varioskan Flash microplate reader (Thermo Fisher Scientific) using excitation and emission wavelengths of 360 and 450 nm, respectively. Experiments were performed in triplicate unless specified otherwise. For Ki value determination, the inhibitor concentration was varied in the above reaction, and different concentrations of substrate (2–8 μM) were used. The amount of released 4-MU was quantified as above, and the Ki value and the mode of inhibition were determined using the Dixon plot.

Another assay addresses T2, SmChiA (Serratia marcescens, UniProt P07254).
T2 construct: made in house; host or cells: Escherichia coli BL21(DE3)
The experiment in a line: Chitinase inhibition assay and Ki determination (MU-β-(GlcNAc)2 substrate, Dixon plot), SmChiA. In kind it is biochemical. The conditions noted are these: for inhibition at 10 µM: 10 μM inhibitor, 10 nM enzyme, 4 μM MU-β-(GlcNAc)2, pH 6.0, 30 °C, 20 min; for Ki: Dixon plot, three substrate concentrations. The method, then: as §1, §2

Another assay addresses T3, HsChit1 (Homo sapiens, UniProt Q13231).
T3 construct: made in house; host or cells: Pichia pastoris GS115
The experiment in a line: Chitinase inhibition assay and Ki determination (MU-β-(GlcNAc)2 substrate, Dixon plot), HsChit1. In kind it is biochemical. The following applies: three substrate concentrations. The procedure: SmChiA was expressed in Escherichia coli BL21(DE3), HsChit1 and OfChi-h were overexpressed in Pichia pastoris GS115. The Escherichia coli BL21(DE3) strain was purchased from TaKaRa Biotech (Dalian, […]) while the Pichia pastoris GS115 strain was obtained from Invitrogen (Thermo Fisher Scientific, CA, USA), both of which were cultured and handled according to the protocols provided by suppliers. All chitinases were purified using immobilised metal ion affinity chromatography as previously described. Briefly, solid ammonium sulphate was slowly added to the culture supernatant to achieve 75% saturation. After incubation at 4 °C for 24 h, the precipitated proteins were collected by centrifugation at 12,000 × g for 30 min at 4 °C. […] The expressed proteins were quantified using a BCA protein assay kit (TaKaRa Biotech, China). And their purities were determined by SDS-PAGE and found to be >95% in all cases.
Chitinase activities for SmChiA, HsChit1 and OfChi-h were determined using 4-methylumbelliferyl-N, N′-diacetyl-β-D-chitobioside (MU-β-(GlcNAc)2) (purchased from Sigma) as a substrate. […] After incubation at 30 °C for 20 min, 0.5 M sodium carbonate was added to the reaction mixture, and the fluorescence produced by the released 4-MU was quantified with a Varioskan Flash microplate reader (Thermo Fisher Scientific) using excitation and emission wavelengths of 360 and 450 nm, respectively. […]

Assay [2] deals with T1, OfChi-h. The conditions noted are these: read-out: OfChi-h Ki; cited from earlier work.

Where two headings read alike, the source gives them in different places.

T2 sequence (P07254 24-563): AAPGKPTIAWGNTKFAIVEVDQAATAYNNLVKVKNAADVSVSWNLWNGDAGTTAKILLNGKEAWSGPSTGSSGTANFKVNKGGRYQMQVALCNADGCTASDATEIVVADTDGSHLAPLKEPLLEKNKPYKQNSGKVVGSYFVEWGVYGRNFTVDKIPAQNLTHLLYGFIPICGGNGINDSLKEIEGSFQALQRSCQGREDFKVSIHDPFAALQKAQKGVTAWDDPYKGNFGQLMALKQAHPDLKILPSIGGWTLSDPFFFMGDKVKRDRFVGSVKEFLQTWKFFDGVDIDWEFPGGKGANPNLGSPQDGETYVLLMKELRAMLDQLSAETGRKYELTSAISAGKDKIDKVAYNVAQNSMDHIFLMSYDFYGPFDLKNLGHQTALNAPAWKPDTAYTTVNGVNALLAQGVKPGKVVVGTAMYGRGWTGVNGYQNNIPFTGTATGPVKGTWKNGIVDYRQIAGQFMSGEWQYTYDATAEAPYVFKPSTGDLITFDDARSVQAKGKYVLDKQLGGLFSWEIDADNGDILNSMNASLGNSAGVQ
T1 sequence (Q4AE59 18-553): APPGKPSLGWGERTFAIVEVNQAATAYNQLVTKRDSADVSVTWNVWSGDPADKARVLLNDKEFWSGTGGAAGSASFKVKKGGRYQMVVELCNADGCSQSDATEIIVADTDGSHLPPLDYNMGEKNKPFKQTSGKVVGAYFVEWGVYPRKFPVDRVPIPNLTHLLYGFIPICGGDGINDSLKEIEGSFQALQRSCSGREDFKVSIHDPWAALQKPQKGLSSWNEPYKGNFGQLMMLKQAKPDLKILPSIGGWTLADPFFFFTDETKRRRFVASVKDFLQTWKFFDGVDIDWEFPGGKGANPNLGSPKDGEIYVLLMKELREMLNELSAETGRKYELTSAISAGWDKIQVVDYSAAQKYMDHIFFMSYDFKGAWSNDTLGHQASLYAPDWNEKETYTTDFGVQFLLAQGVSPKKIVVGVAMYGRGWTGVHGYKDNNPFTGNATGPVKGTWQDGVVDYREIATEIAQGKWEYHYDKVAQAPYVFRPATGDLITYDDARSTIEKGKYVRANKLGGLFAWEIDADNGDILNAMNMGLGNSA
T3 sequence (Q13231 22-466): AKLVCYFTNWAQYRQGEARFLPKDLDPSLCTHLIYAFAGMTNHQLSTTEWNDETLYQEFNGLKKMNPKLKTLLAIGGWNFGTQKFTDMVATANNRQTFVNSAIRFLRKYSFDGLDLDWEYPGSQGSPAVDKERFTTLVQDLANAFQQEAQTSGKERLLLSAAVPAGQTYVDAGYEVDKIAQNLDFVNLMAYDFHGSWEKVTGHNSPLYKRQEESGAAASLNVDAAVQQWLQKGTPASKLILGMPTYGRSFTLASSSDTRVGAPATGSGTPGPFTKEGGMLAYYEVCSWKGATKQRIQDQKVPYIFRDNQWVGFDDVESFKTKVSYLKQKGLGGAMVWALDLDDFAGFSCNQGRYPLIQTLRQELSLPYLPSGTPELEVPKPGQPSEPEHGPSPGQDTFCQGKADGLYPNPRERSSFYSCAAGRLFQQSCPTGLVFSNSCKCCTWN

By inhibition is commonly meant how much of the control response was suppressed. As a reminder, the Ki is a measure of affinity in units of concentration, obtained from inhibition or displacement. On OfChi-h [1], `COc1ccc(Cn2cnc3nc4nc5c(C)cccn5c(=O)c4cc3c2=O)cc1` [6g] had an inhibition at 10 µM of 74 ± 2% and an inhibition constant (Ki) of 1030 nM. In addition, the inhibition at 10 µM against SmChiA is 30.3 ± 2.7%.

In the case of `COc1ccc(Cn2cnc3nc4nc5c(C)cccn5c(=O)c4cc3c2=O)cc1OC` [6f], on OfChi-h [1], the inhibition at 10 µM turned out to be 69.3 ± 4.4% and affinity was put at a Ki of 747 nM. Moreover, the inhibition at 10 µM at SmChiA was determined as 34.2 ± 2.5%.

As for `Cc1cccn2c(=O)c3cc4c(=O)n(Cc5cccnc5)cnc4nc3nc12` [6a], the figures for the inhibition at 10 µM against OfChi-h [1] and on SmChiA were 99.3 ± 0.2% and 98.5 ± 0.2%, respectively. Also, the “Improvement in inhibitory activity against OfChi-h (Ki) compared to 5a” value on OfChi-h [1] (6a Ki versus 5a Ki) is “approximately 15 fold”. For the same molecule, the Ki amounted to 58 nM at OfChi-h [1], 126 nM at SmChiA and 295 nM on HsChit1.

`Cc1cccn2c(=O)c3cc4c(=O)n(C(C)c5cccnc5)cnc4nc3nc12` (stereo not shown) [6b]: the inhibition at 10 µM at OfChi-h [1] is 96.8 ± 0.1%; against SmChiA, 88.7 ± 2.2%. The molecule also had a Ki at OfChi-h [1] of 215 nM.

Take `Cc1cccn2c(=O)c3cc4c(=O)n(Cc5cccc(N)c5)cnc4nc3nc12` [6h]: at OfChi-h [1], testing at 10 µM gave an inhibition of 89 ± 1.5% and the affinity corresponds to a Ki of 276 nM. Also, on SmChiA, the inhibition at 10 µM was determined as 37.9 ± 0.4%.

With `Cc1cccn2c(=O)c3cc4c(=O)n(Cc5cnccn5)cnc4nc3nc12` [6c], at OfChi-h [1], the inhibition at 10 µM was found to be 95.3 ± 0.5% and the Ki stood at 294 nM. On SmChiA, 10 µM produced 91.5 ± 0.8% inhibition.

With `C#CCn1cnc2nc3nc4c(C)cccn4c(=O)c3cc2c1=O` [6l], the inhibition at 10 µM against OfChi-h [1] was found to be 81 ± 0.8%; on SmChiA, 37.5 ± 2.2%. The Ki on OfChi-h [1] was 1340 nM.

In the case of `Cc1cccn2c(=O)c3cc4c(=O)n(Cc5ccco5)cnc4nc3nc12` [6k], the figures for the inhibition at 10 µM against OfChi-h [1] and against SmChiA were 86.8 ± 0.8% and 47.5 ± 1.2%, respectively. This molecule also returned a Ki on OfChi-h [1] of 1510 nM.

For the molecule `Cc1cccn2c(=O)c3cc(C(=O)NCc4cccnc4)c(N)nc3nc12` [5a, reference compound], the Ki at OfChi-h [2] was 860 nM; at SmChiA it was 6190 ± 155 nM.

Regarding `Cc1cccn2c(=O)c3cc4c(=O)n(CCc5c[nH]c6ccccc56)cnc4nc3nc12` [6j], the inhibition at 10 µM against OfChi-h [1] was determined as 49.6 ± 2.2%; against SmChiA, 42.4 ± 4.1%.

Turning to `COc1cc(Cn2cnc3nc4nc5c(C)cccn5c(=O)c4cc3c2=O)cc(OC)c1OC` [6e], the figures for the inhibition at 10 µM on OfChi-h [1] and against SmChiA were 96.2 ± 0.3% and 28.2 ± 4.8%, respectively. Besides, on OfChi-h [1], affinity was put at a Ki of 65 nM.

Take `Cc1cccn2c(=O)c3cc4c(=O)n(Cc5ccc(Cl)c(F)c5)cnc4nc3nc12` [6i]: the inhibition at 10 µM came out at 42.9 ± 1% against OfChi-h [1] and 31.7 ± 0.2% against SmChiA. Moreover, the affinity at OfChi-h [1] corresponds to a Ki of 2890 nM.

At OfChi-h [1], `Cc1cccn2c(=O)c3cc4c(=O)n(Cc5ccccc5)cnc4nc3nc12` [6d] registered an inhibition at 10 µM of 72.5 ± 2.4% and an inhibition constant Ki of 1420 nM. At SmChiA, this molecule registered an inhibition at 10 µM of 32 ± 1.4%.
